US9045524B2, “Selective caspase inhibitors and uses thereof” (NOVAGENESIS FOUNDATION, priority 2009, dated 2015)
pIC50: −log10 of the molar value. Read-outs that look alike come from different tables or passages of the source.

Columns and labels:
Caspase-7 = Caspase-7 (Homo sapiens (Human), UniProt P55210); assay: Caspase-7 Inhibitor Drug Screening Kit, fluorometric (AFC liberation); format: biochemical; details: 30-minute incubation at 37° C.; approximations of the average values; read-out: Caspase enzymatic activity, IC50 (uM) Caspase 7
Description: (§1) The level of inhibition of caspase-1, -3, -5, -7, -9 activity was determined by comparison of the relative fluorescence intensity in samples with or without the compound.

Caspase-3 = Caspase-3 (Homo sapiens (Human), UniProt P42574); assay: Caspase-3 Inhibitor Drug Screening Kit, fluorometric (AFC liberation); format: biochemical; details: for IC50: 30-minute incubation at 37° C., approximations of the average values, read-out: Caspase enzymatic activity, IC50 (uM) Caspase 3
Description: as §1

Caspase-1 = Caspase-1 (Homo sapiens (Human), UniProt P29466); assay: Caspase-1 Inhibitor Drug Screening Kit, fluorometric (AFC liberation); format: biochemical; details: for IC50: 30-minute incubation at 37° C., approximations of the average values, read-out: Caspase enzymatic activity, IC50 (uM) Caspase 1; for inhibitory activity for caspase-1: at the tested dose-range (1 to 3333 nM)
Description: as §1

Caspase-9 = Caspase-9 (Homo sapiens (Human), UniProt P55211); assay: Caspase-9 Inhibitor Drug Screening Kit, fluorometric (AFC liberation); format: biochemical; details: for IC50: 30-minute incubation at 37° C., approximations of the average values, read-out: Caspase enzymatic activity, IC50 (uM) Caspase 9; for inhibitory activity for caspase-9: at the tested dose-range (1 to 3333 nM)
Description: as §1

Glo3/7 = Glo3/7 assay; format: biochemical
Caspase-5 = Caspase-5 (Homo sapiens (Human), UniProt P51878); assay: Caspase-5 Inhibitor Drug Screening Kit, fluorometric (AFC liberation); format: biochemical; details: for IC50: 30-minute incubation at 37° C., approximations of the average values, read-out: Caspase enzymatic activity, IC50 (uM) Caspase 5; for inhibitory activity for caspase-5: at the tested dose-range (1 to 3333 nM)
Description: as §1

EAE in C57BL/6 mice = assay: Chronic EAE mouse model (MOG35-55 immunization), daily clinical score and body weight; format: in vivo; design: key to Delay in onset of the disease / Reduction in severity of the disease / Reduction in body weight loss: +++: high level improvement; ++: moderate improvement; +: small improvement; −: no improvement; details: for Delay in onset of the disease / Reduction in body weight loss / Reduction in severity of the disease: average overall effects on the EAE model, i.p.
Description: The aim of this study was to verify the effectiveness of compounds in a chronic mouse animal model of EAE. EAE is a good proof-of-principle model of neurodegeneration since it encompasses degeneration or destruction of practically all the cells in the central nervous system, includes most major immunomodulatory components, and is able to maintain normal innate regenerative functions in the animal. This is a standard model (Antel J P et al., J Neurosci Res. 1997, 50: 345-353) used mainly to mimic the course evolution of Multiple Sclerosis (MS) in humans, and is commonly used for studying disease mechanisms and testing potential therapies. EAE is induced by immunization with myelin proteins, leading to development of myelin-specific T cells. These autoreactive T cells traffic into CNS parenchyma where they initiate an inflammatory cascade through recruitment of other cells such as monocytes and neutrophils. Accumulation of immune cells within CNS leads to myelin damage, axonal loss and clinical deficit in affected animals. EAE can be induced in a variety of species and strains of animals [mice, Rat, marmoset monkey, rhesus macaques] using various CNS antigens [Myelin Oligodendrocyte Glycoprotein (MOG), proteolipid protein (PLP) and myelin basic protein (MBP)]. Seven to 8 week old female C57BL/6 mice were purchased from Charles River Laboratories, and housed at MISPRO™ animal facility for one week before experimentation for adaptation to the new environment. All proper animal experimentation and ethics approvals were obtained prior to the start of any experiments. Mice were immunized subcutaneously with 100 μg of MOG35-55 (Sheldon Biotechnology Centre, McGill University) in CFA containing 5 mg/ml of desiccated (killed and dried) Mycobacterium tuberculosis H37Ra (Difco, Inc), at two sites on the back. The mice were then injected with 200 ng of pertussis toxin (List Biological Laboratories, Inc) in PBS intraperitoneally on days 0 and 2 using 25 gauge needles and scored daily using an EAE clinical scale as detailed below (Touil T et al., J Neurol Sci. 2008, 271:191-202; Antel J P et al., 1997, supra; Owens T et al., Curr Pharm Des. 2005, 1:1031-1037).
EAE was clinically assessed throughout the experiments by daily scoring using a scale from 0 to 5 as follows: partial limp tail, 0.5; full limp tail, 1; limp tail and waddling gait, 1.5; paralysis of one hind limb, 2; paralysis of one hind limb and partial paralysis of other hind limb, 2.5; paralysis of both hind limbs, 3; ascending paralysis, 3.5; paralysis of trunk, 4; moribund, 4.5; death, 5. In all the EAE models a body weight loss is always associated with the clinical signs. This body weight loss is associated with the loss of the function and the paralysis of the muscle (atrophy inducing loss of weight). For animals showing a clinical sign of 2 or more, the food and the water were presented inside the cage to facilitate eating and drinking.
At the onset of clinical signs of EAE, the mice were treated with 200 μl of Compound 51, 53, 57, 59, 101, 104, 105, 111 or 123 dissolved in 2.5% Dimethyl sulfoxide (DMSO) in PBS, while placebo groups were treated with 2.5% Dimethyl sulfoxide (DMSO) in PBS only, by intraperitoneal injection at different time of the clinical evolution.

[1] = system: proteolytic cleavage of PARP (poly ADP-ribose polymerase) in Hela cells; assay: Inhibition of staurosporine-induced PARP cleavage in live Hela cells; format: cell-based; details: Hela cells, staurosporine
Description: To test the efficacy of caspase-3 inhibitors at the cellular level, the ability of selected compounds to inhibit the proteolytic cleavage of PARP (poly ADP-ribose polymerase) was evaluated in live Hela cells.
Briefly, in this assay Hela cells are seeded in 96 well plates and incubated for 4 hours with staurosporine, a well characterized inducer of apoptosis, alone or together with different concentrations of compound (50, 25, 10 and 3 uM). After formaldehyde-based fixation, the cells are stained with a fluorescein-labeled anti-cleaved PARP antibody (Cell signaling, Cat#: 9547) and counterstained with Hoechst33342 (Invitrogen, Cat#: H3570) to mark all nuclei. Fluorescence images are taken on a Cellomics™ microscope system (Thermo Scientific, Pittsburgh, USA) with the Hoechst stain in the blue channel and the cleaved PARP antibody stain in the green channel. The percentage of cleaved PARP positive cells is determined by calculating the ratio between nuclei with a cleaved PARP antibody staining above a certain threshold and all (Hoechst positive) nuclei. The efficacy of caspase-3 inhibition is determined by calculating the ratio between cleaved PARP positive cells after staurosporine incubation together with compounds and staurosporine incubation without compounds.

[2] = FIG. 4, administration for 15 days from day 12 post-immunization, versus placebo
[3] = FIG. 2, i.p. from day 10 to 16 post immunization, versus placebo

Caspase-5, sequence (P51878 137-434): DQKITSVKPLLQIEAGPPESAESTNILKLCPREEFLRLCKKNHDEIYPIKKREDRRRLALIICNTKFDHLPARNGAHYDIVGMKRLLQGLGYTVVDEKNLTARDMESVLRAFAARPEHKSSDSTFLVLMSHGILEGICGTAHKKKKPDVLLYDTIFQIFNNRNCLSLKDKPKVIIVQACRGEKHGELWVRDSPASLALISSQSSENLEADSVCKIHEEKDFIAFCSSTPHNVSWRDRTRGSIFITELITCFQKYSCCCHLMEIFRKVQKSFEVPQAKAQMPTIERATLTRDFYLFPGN
Caspase-7, sequence (P55210 whole entry): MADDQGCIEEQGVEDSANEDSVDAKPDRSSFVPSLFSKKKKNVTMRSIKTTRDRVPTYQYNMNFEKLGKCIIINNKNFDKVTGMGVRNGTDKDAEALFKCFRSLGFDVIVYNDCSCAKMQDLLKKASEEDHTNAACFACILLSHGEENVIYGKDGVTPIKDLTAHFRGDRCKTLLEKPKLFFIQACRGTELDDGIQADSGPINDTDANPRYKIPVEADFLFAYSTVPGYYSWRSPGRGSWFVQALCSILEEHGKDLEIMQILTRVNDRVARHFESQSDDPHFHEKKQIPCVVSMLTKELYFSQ
Caspase-9, sequence (P55211 whole entry): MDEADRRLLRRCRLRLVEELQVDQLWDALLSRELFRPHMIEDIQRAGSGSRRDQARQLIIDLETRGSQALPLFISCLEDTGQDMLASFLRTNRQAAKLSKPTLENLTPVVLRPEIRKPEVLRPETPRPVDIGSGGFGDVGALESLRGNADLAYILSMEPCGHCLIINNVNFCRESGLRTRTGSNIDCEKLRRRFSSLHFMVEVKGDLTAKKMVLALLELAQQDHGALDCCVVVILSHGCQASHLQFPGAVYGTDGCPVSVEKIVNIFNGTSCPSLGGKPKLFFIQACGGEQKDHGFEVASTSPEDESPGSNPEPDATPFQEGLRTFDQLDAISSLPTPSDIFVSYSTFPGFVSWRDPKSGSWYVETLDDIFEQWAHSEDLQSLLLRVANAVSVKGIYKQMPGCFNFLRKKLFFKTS
Caspase-3, sequence (P42574 29-277): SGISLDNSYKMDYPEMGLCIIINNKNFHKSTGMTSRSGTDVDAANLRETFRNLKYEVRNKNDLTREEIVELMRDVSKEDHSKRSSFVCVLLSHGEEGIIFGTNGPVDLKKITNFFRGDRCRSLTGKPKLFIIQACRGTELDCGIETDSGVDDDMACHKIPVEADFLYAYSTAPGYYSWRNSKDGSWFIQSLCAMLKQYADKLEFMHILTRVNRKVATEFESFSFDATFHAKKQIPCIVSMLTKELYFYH
Caspase-1, sequence (P29466 120-404): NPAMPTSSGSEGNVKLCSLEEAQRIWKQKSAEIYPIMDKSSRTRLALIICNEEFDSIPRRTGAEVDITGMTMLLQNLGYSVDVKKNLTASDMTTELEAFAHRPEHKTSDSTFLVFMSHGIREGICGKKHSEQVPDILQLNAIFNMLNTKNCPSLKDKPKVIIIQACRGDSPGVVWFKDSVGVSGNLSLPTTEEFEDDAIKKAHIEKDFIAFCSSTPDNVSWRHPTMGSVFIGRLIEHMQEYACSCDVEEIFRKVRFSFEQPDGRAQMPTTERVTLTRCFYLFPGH

Row | SMILES | IC50 (Caspase-7) [µM] | IC50 (Caspase-3) [µM] | IC50 (Caspase-1) [µM] | IC50 (Caspase-9) [µM] | IC50 (Glo3/7) [µM] | IC50 (Caspase-5) [µM] | other results
1 | CC(C)(C)OC(=O)C[C@@H](/C=C/S(=O)(=O)c1ccccc1)NC(=O)OC(C)(C)C [Compound 36, Boc-Asp(O-tBu)VSphenyl] | > 3.33 | > 2 | > 3.33 | > 3.33 | > 50 | > 3.33 | 
2 | COC(=O)CC[C@H](NC(=O)[C@H](CC(=O)OC)NC(=O)OCc1ccccc1)C(=O)N[C@H](C(=O)N[C@@H](CC(=O)OC)C(=O)CF)C(C)C [zDEVD-FMK, z-D(OMe)E(OMe)VD(OMe)FMK, reference compound] |  |  |  |  |  |  | onset of the disease (EAE in C57BL/6 mice; [2]): delayed the onset; severity of the disease (EAE in C57BL/6 mice; [2]): reduced the severity of the disease
3 | CC(C)[C@H](NC(=O)[C@H](Cc1c[nH]c2ccccc12)NC(=O)[C@H](CC(=O)O)NC(=O)OCc1ccccc1)C(=O)N[C@H](/C=C/S(C)(=O)=O)CC(=O)O [Compound 88, Z-Asp-Trp-Val-Aspmethyl vinyl sulfone] | 1.1 | 0.04 | 0.7 | > 3.33 | 0.7 | > 3.33 | pIC50 (Caspase-3; read-out: IC50 caspase-3): 7.05 to 7.52
4 | COC(=O)C[C@@H](/C=C(\Cl)S(C)(=O)=O)NC(=O)[C@@H](NC(=O)[C@@H](NC(=O)[C@H](CC(=O)OC)NC(=O)OCc1ccccc1)c1ccccc1)C(C)C [Compound 104, Z-Asp(β-methyl)-phenylglycine-Val-Asp(β-methyl)achlorovinyl Methylsulfone] |  |  |  |  |  |  | Disease onset (EAE in C57BL/6 mice; [3]): delayed; Loss of body weight (EAE in C57BL/6 mice; [3]): did not show and significant difference compared to placebo; severity of the disease (EAE in C57BL/6 mice; [3]): reduced significantly at the early stage of the disease; Delay in onset of the disease (EAE in C57BL/6 mice): ++; Reduction in body weight loss (EAE in C57BL/6 mice): −; Reduction in severity of the disease (EAE in C57BL/6 mice): +
5 | CC(C)[C@H](NC(=O)[C@H](Cc1ccc2ccccc2n1)NC(=O)[C@H](CC(=O)O)NC(=O)OCc1ccccc1)C(=O)N[C@H](/C=C/S(C)(=O)=O)CC(=O)O [Compound 55, Z-Asp-Ala(2′-quinolyl)-Val-Aspmethyl vinyl sulfone] | 1.4 |  | > 10 | > 3.33 | 0.1 | > 10 | effectivity in inhibiting PARP cleavage [1]: showing effectivity especially relative to DEVD-fmk; inhibitory activity for caspase-1 (Caspase-1): No significant inhibitory activity; inhibitory activity for caspase-9 (Caspase-9): No significant inhibitory activity; inhibitory activity for caspase-5 (Caspase-5): No significant inhibitory activity
6 | CC(C)[C@H](NC(=O)[C@@H](NC(=O)[C@H](CC(=O)O)NC(=O)OCc1ccccc1)C1Cc2ccccc2C1)C(=O)N[C@H](/C=C/S(=O)(=O)C(C)C)CC(=O)O [Compound 68, Z-Asp-Indanylglycine-Val-Aspisopropyl Vinyl Sulfone] | 1.5 | 0.2 | > 3.33 | > 3.33 | 1.1 | > 3.33 | 
7 | CC(C)[C@H](NC(=O)[C@H](Cc1ccc2ccccc2n1)NC(=O)[C@H](CC(=O)O)NC(=O)OCc1ccccc1)C(=O)N[C@H](/C=C/S(=O)(=O)Oc1ccccc1)CC(=O)O [Compound 65, Z-Asp-Ala(2′-quinolyl)-Val-Aspphenoxy vinyl sulfone] | 0.4 | 0.01 | 1.2 | 0.3 | 0.2 | > 3.33 | 
8 | CC(C)[C@H](NC(=O)C(Cc1ccc2ccccc2n1)NC(=O)[C@H](CC(=O)O)NC(=O)OCc1ccccc1)C(=O)N[C@H](/C=C/S(=O)(=O)c1ccccc1)CC(=O)O (stereo partly drawn) [Compound 70, Z-Asp-(D,L Ala(2′-quinolyl))-Val-Aspphenyl Vinylsulfone] | > 10 | 0.3 | > 3.33 | > 10 | 20 | > 10 | 
9 | CC(C)[C@H](NC(=O)[C@H](Cc1ccc(OC(C)(C)C)cc1)NC(=O)OCc1ccccc1)C(=O)N[C@@H](C)C(=O)N[C@H](/C=C/S(=O)(=O)c1ccccc1)CC(=O)OC(C)(C)C [Compound 95, Z-Tyr(OtBu)- Val-Ala-Asp (OtBu) phenyl vinyl sulfone] |  |  |  |  |  |  | effects on the clinical course of EAE (EAE in C57BL/6 mice; FIG. 3, i.p. from day 14 to 19 post immunization, versus placebo): ameliorating effects
10 | COC(=O)C[C@@H](/C=C(\Cl)S(C)(=O)=O)NC(=O)[C@@H](NC(=O)[C@@H](NC(=O)[C@H](CC(=O)OC)NC(=O)OCc1ccccc1)C1Cc2ccccc2C1)C(C)C [Compound 105, Z-Asp(β-methyl)-indanylglycine-Val-Asp(β-methyl)achlorovinyl Methylsulfone] |  |  |  |  |  |  | Disease onset (EAE in C57BL/6 mice; [3]): delayed; Loss of body weight (EAE in C57BL/6 mice; [3]): less than placebo; severity of the disease (EAE in C57BL/6 mice; [3]): reduced significantly at the early stage of the disease; Delay in onset of the disease (EAE in C57BL/6 mice): ++; Reduction in body weight loss (EAE in C57BL/6 mice): ++; Reduction in severity of the disease (EAE in C57BL/6 mice): +
11 | CC(C)[C@H](NC(=O)OCc1ccccc1)C(=O)N[C@H](/C=C/S(C)(=O)=O)CC(=O)O [Compound 61, z-Val-AspVSmethyl] | > 3.33 | > 3.33 | > 3.33 | > 3.33 | 50 | > 3.33 | activity against caspase-3 (Caspase-3): abolished completely the activity
12 | CC(C)[C@H](NC(=O)[C@H](Cc1ccc2ccccc2n1)NC(=O)[C@H](CC(=O)O)NC(=O)OCc1ccccc1)C(=O)N[C@H](/C=C/S(=O)(=O)c1ccccc1)CC(=O)O [Compound 63, Z-Asp-Ala(2′-quinolyl)-Val-Aspphenyl vinyl sulfone] | 1.8 | 0.04 | > 3.33 | > 3.33 | 0.9 | > 3.33 | selectivity of Caspase-3 over Caspase-7 based on IC50 values (Caspase-3; IC50 caspase-7 versus caspase-3): ~50 fold; inhibitory activity for caspase-1 (Caspase-1): No significant inhibitory activity; inhibitory activity for caspase-9 (Caspase-9): No significant inhibitory activity; inhibitory activity for caspase-5 (Caspase-5): No significant inhibitory activity
